Source: US20210395239A1 (Hoffmann-La Roche Inc., priority 2018, published 2021)

These molecules were tested against T1, human TLR8 (Homo sapiens, UniProt Q9NR97) (assay: HEK293-Blue-hTLR-8 cells assay (SEAP reporter, R848 stimulation)). Settings: HEK293-Blue-hTLR8 cells, R848, 20 hrs; read-out: HEK/hTLR8 IC50.
T1 construct: host or cells: HEK293 (HEK-Blue hTLR8)
T1 sequence (Q9NR97 27-1041): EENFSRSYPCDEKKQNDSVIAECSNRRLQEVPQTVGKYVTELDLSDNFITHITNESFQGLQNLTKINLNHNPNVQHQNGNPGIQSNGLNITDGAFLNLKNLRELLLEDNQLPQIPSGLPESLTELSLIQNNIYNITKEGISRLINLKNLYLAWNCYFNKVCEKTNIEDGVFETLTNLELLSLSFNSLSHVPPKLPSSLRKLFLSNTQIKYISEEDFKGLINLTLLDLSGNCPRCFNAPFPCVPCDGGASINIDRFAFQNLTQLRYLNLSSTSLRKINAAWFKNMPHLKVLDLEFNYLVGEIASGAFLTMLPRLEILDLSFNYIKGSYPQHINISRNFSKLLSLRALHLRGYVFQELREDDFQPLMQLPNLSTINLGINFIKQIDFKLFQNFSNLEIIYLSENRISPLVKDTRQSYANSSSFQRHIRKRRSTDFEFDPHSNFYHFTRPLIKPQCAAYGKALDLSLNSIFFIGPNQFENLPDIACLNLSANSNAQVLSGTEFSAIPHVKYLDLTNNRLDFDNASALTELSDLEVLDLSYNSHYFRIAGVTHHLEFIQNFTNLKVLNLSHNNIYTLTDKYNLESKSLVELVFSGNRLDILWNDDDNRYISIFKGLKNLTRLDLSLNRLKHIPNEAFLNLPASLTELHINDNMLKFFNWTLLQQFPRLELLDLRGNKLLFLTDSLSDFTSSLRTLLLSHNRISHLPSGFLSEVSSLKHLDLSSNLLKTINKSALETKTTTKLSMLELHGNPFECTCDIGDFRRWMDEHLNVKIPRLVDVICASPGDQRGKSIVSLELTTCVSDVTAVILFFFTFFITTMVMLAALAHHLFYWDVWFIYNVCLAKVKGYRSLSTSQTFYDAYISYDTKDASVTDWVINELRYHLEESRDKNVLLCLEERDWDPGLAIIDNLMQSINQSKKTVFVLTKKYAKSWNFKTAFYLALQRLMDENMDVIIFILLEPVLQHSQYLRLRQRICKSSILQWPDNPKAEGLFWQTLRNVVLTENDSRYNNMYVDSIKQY
Assay type: cell-based
In short: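 Antagonism read as reduced R848-induced SEAP reporter secretion, detected by QUANTI-Blue absorbance at 620–655 nm after 2 h. Reporter cells were exposed to compound dilutions in DMEM/10% FBS, 1% DMSO, for 20 h at 37° C.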

In order of rising IC50:
1. CO[C@H]1CN(c2nc(C)cc(N3CCN(C[C@H]4CN(c5ccc(C#N)c6ncccc56)C[C@@H](C)O4)CC3)n2)CC1N (relative stereo) [Example 59, 5-[(2R,6S)-2-methyl-6-[[4-[6-methyl-2-[trans-3-amino-4-methoxy-pyrrolidin-1-yl]pyrimidin-4-yl]piperazin-1-yl]methyl]morpholin-4-yl]quinoline-8-carbonitrile]  3 nM
2. Cc1cc(N2CCN(C[C@H]3CN(c4ccc(C#N)c5ncccc45)C[C@@H](C)O3)CC2)nc(N2CC(N)C(F)C2)n1 (stereo in doubt) [Example 54, 5-[(2S,6R)-2-[[4-[2-[(3S,4R)-3-amino-4-fluoro-pyrrolidin-1-yl]-6-methyl-pyrimidin-4-yl]piperazin-1-yl]methyl]-6-methyl-morpholin-4-yl]quinoline-8-carbonitrile]  3 nM
3. C[C@@H]1CN(c2ccc(C#N)c3ncccc23)C[C@H](CN2CCN(c3cnc(N4CCNCC4)nc3)CC2)O1 [Example 12, 5-[(2R,6S)-2-methyl-6-[[4-(2-piperazin-1-ylpyrimidin-5-yl)piperazin-1-yl]methyl]morpholin-4-yl]quinoline-8-carbonitrile]  3 nM
4. C[C@@H]1CN(c2ccc(C#N)c3ncccc23)C[C@H](CN2CCN(c3ccc(N4CCNCC4)nc3)CC2)O1 [Example 13, 5-[(2R,6S)-2-methyl-6-[[4-(6-piperazin-1-yl-3-pyridyl)piperazin-1-yl]methyl]morpholin-4-yl]quinoline-8-carbonitrile]  5 nM
5. C[C@@H]1CN(c2ccc(C#N)c3ncccc23)C[C@H](CN2CCN(c3ncc(N4CCNCC4)cn3)CC2)O1 [Example 17, 5-[(2R,6S)-2-methyl-6-[[4-(5-piperazin-1-ylpyrimidin-2-yl)piperazin-1-yl]methyl]morpholin-4-yl]quinoline-8-carbonitrile]  6 nM
6. C[C@@H]1CN(c2ccc(C#N)c3ncccc23)C[C@H](CN2CCN(c3cc(N4CCNCC4)ncn3)CC2)O1 [Example 18, 5-[(2R,6S)-2-methyl-6-[[4-(6-piperazin-1-ylpyrimidin-4-yl)piperazin-1-yl]methyl]morpholin-4-yl]quinoline-8-carbonitrile]  6 nM
7. C[C@@H]1CN(c2ccc(C#N)c3ncccc23)C[C@H](CN2CCN(c3cccc(N4CCNCC4)n3)CC2)O1 [Example 10, 5-[(2R,6S)-2-methyl-6-[[4-(6-piperazin-1-yl-2-pyridyl)piperazin-1-yl]methyl]morpholin-4-yl]quinoline-8-carbonitrile]  10 nM
8. C[C@@H]1CN(c2ccc(C#N)c3ncccc23)C[C@H](CN2CCN(c3ccc([C@H]4CNCCO4)cc3)CC2)O1 [Example 20, 5-[(2R,6S)-2-methyl-6-[[4-[4-[(2S)-morpholin-2-yl]phenyl]piperazin-1-yl]methyl]morpholin-4-yl]quinoline-8-carbonitrile]  10 nM
9. C[C@@H]1CN(c2ccc(C#N)n3ncc(F)c23)C[C@H](CN2CCN(c3ccc(C4CNCCO4)cc3F)CC2)O1 (stereo in doubt) [Example 183, 3-fluoro-4-[(2S,6R)-2-[[4-[2-fluoro-4-[(2S)-morpholin-2-yl]phenyl]piperazin-1-yl]methyl]-6-methyl-morpholin-4-yl]pyrazolo[1,5-a]pyridine-7-carbonitrile]  13 nM
10. COC1CN(c2ccc(C3CN(C[C@H]4CN(c5cc(=O)n(C)c6ncccc56)C[C@@H](C)O4)C3)cc2)C[C@H]1N (stereo in doubt) [Example 172, 4-[(2S,6R)-2-[[3-[4-[(3R,4R)-3-amino-4-methoxy-pyrrolidin-1-yl]phenyl]azetidin-1-yl]methyl]-6-methyl-morpholin-4-yl]-1-methyl-1,8-naphthyridin-2-one]  93 nM
11. C[C@@H]1CN(c2cc(=O)n(C)c3ncccc23)C[C@H](CN2CC(c3ccc(N4CC(F)[C@H](N)C4)cc3)C2)O1 (stereo in doubt) [Example 174, 4-[(2S,6R)-2-[[3-[4-[(3R,4R)-3-amino-4-fluoro-pyrrolidin-1-yl]phenyl]azetidin-1-yl]methyl]-6-methyl-morpholin-4-yl]-1-methyl-1,8-naphthyridin-2-one]  159 nM
